Laboratory results: US11925623B2 (priority 2020, dated 2024)
Entries after “also recorded” stand apart in the source; their conditions may differ.

What was measured:
[1] = Tolerability in i.c.v Aβ1-42 injected nontransgenic mice; format: in vivo, C57/BL6 mice
Method: (§1) Eight-week old Wild type C57/BL6 mice were treated i.p. with sulfanegen at 50 and 100 mg/kg dose during the entire duration of experiment. The mice were injected with intracerebroventricular (i.c.v) Aβ1-42 on day 3 after initiation of drug treatment (1 nmol/mouse). Behavioral test (T-maze) was conducted 6 days after Aβ1-42 injection, which was followed by euthanization on day 8. Biochemical analysis of the collected brain tissues was conducted using ELISA method for quantitation of Aβ1-42, and immunohistochemical analysis for GFAP (inflammatory marker). The brain tissues were also analyzed for oxidative stress markers (GSH assay, see Example 5; and protein carbonyls, see Example 6). • Groups: • Saline control N=12, (N=5 study 2; N=7 study 3) • Abeta control N=15, (N=7 study 2; N=8 study 3) • Sulfanegen, 50 mg/kg, N=7 • Sulfanegen, 100 mg/kg, N=7

[2] = test system: i.c.v Aβ1-42 injected nontransgenic mice; experiment: T-maze spontaneous alternation in i.c.v Aβ1-42 injected mice; format: in vivo, C57/BL6 mice
Method: as §1
Spontaneous alternation in a T-maze was used to assess working memory abilities, based on the innate tendency of mice to alternate their choice of a goal arm based on their recall of the initial choice. The T-maze used was made of black plexiglass as per dimensions stated in Nat Protocol, 2006 [PMID: 17406205, www.nature.com/articles/nprot.2006.2]. Mice were placed in the start arm with the central divider in place so that when entering either of the goal arms the mice were not able to see the other one. The mice were allowed to move freely in the whole hall, and then, after being confined to the start arm for 30 seconds, the animal was allowed to move freely for a total of 15 arm entrees. […] The alternation percentage was calculated by dividing the number of times the animal entered alternating arms by 14 (free-choice trials). […] Ratio of right and left arm entries was calculated to determine spatial preference of mice in different treatment groups. The data were analyzed using repeated measures analysis of variance (ANOVA) using Dunnett test.

[3] = test system: TNFα; experiment: TNFα ELISA of brain tissue, i.c.v Aβ1-42 mice; format: in vivo, C57/BL6 mice; details: 50 and 100 mg/kg i.p.; no difference between doses
Method: as §1
(§2) TNFα ELISA kit (BMS607HS, invitrogen) was used. Brain tissue samples were assayed in duplicate. Briefly, the strips provided in the kit were washed with 400 μL wash buffer (lx) twice. 50 μL of brain homogenates or standards were added to 50 μL sample diluent (PBS) in each well. […] The samples were read at 450 nm. Quantification of TNFα in each well was conducted using the standard curve and was normalized to the weight of brain tissue.

[4] = test system: IL-6; experiment: IL-6 ELISA of brain tissue, i.c.v Aβ1-42 mice; format: in vivo, C57/BL6 mice
Method: as §1
as §2, with “IL-6” for “TNFα”, “(BMS603HS,” for “kit (BMS607HS,”, “nm (reference wavelength 620 nm).” for “nm.”

[5] = test system: GSH; experiment: Brain glutathione (GSH) and GSSG level, i.c.v Abeta mouse model; format: in vivo, C57/BL6 mice
Method: as §1
The brain GSH and GSSG level were measured with Glutathione assay kit (Cayman Chemical, Ann Arbor, MI) using the i.c.v Abeta mouse model (see Example 1). A total of 50 μl of sample was added to each well, and 150 μl the assay cocktail (MES buffer, reconstituted cofactor mixture, enzyme mixture, water, and DTNB) were added to the wells. The absorbance was measured at 414 nm using Spectra Max M5 microplate reader. Assay range was calculated under the standard curve (0-16 μM GSH or 0-8 μM GSSG). Results were expressed as nmol/mg protein and ratio of GSH/GSSG. Total GSH levels were higher in sulfanegen treated groups at both doses 50 mg/Kg and 100 mg/Kg. […] Reduced GSH levels were slightly lower in […] but not statistically significant.
The brain tissue for biochemical analysis was rapidly homogenized in these buffers 1) TBS (20 mM Tris-HCl and 150 mM NaCl) buffer with protease inhibitors and 5 M Guanidine-HCl in 50 mM Tris-HCl buffer for Aβ1-42 ELISA assay (FIG. 11, see Example 11 below), 2) 50 mM IVIES buffer for GSH (FIG. 8C, see Example 5) and Protein Carbonyl assay (FIG. 8B, see Example 6), 3) RIPA buffer with protease inhibitors for TBARS assay (FIG. 8A, see Example 7). […]

[6] = test system: protein carbonyls; experiment: Protein carbonyl assay, i.c.v Abeta mouse model; format: in vivo, C57/BL6 mice
Method: as §1
The protein carbonyl content is used as a marker of protein oxidation in the i.c.v Abeta mouse model (see Example 1). The amount of protein-hydrozone produced is quantified spectrophotometrically by Protein Carbonyl Colorimetric assay kit (Cayman Chemical, Ann Arbor, MI). 100 μl of sample was transferred into two tubes, one containing 400 μl of DNPH and the other tube containing 400 μl of 2.5 M HCl. […] The absorbance was measured at 385 nm using Spectra Max M5 microplate reader. […]

[7] = test system: TBARS (lipid peroxidation); experiment: Lipid peroxidation (TBARS) assay, i.c.v Abeta mouse model; format: in vivo, C57/BL6 mice; details: 50 and 100 mg/Kg
Method: as §1
The extent of lipid peroxidation, in the i.c.v Abeta mouse model (see Example 1), was correlated to the levels of thiobarbituric (TBA) acid-reactive entities (TBARS assay). Homogenized brains were exposed to TBA-trichloroacetic acid (TCA)-chloridic acid reagent (HCl; 0.37% TBA, 0.25 N HCl, and 15% TCA) (1:1:1, 2 mL) and incubated for 15 minutes at […]. […] Total protein was determined through the BCA protein assay. […]

[8] = test system: SH-SY-5Y cells; experiment: In vitro amyloid toxicity protection assay (CCK-8); format: cell-based
Method: SH-SY-5Y cells were seeded at a density of 20000/well in a 96-well plate and incubated overnight at 37° C. Following day, cells were treated with media according to their respective treatment group in triplicate. Vehicle-only treated cells are used as control groups. […] On day 3, Cells were incubated with media containing CCK-8 (<10%). After 3 hours of incubation, the absorbance is measured at 450 nm (reference wavelength 600 nm) using Me5 plate reader (Spectramax). The final volume in a well is kept at 100 μL CCK-8 (CK04, Dojindo labs) in this assay.

[9] = test system: APP/PS1 transgenic mice; experiment: T-maze cognitive assessment in APP/PS1 transgenic mice; format: in vivo; details: 75 mg/kg i.p. for 12 weeks; 7 and 12 month cohorts
Source text: Spontaneous alternation in a T-maze was used to assess working memory abilities, based on the innate tendency of mice to alternate their choice of a goal arm based on their recall of the initial choice. The T-maze used was made of black plexiglass as per dimensions stated in Nat Protocol, 2006 [PMID: 17406205, www.nature.com/articles/nprot.2006.2]. Mice were placed in the start arm with the central divider in place so that when entering either of the goal arms the mice were not able to see the other one. The mice were allowed to move freely in the whole hall, and then, after being confined to the start arm for 30 seconds, the animal was allowed to move freely for a total of 15 arm entrees. […] The alternation percentage was calculated by dividing the number of times the animal entered alternating arms by 14 (free-choice trials). An arm entry is defined as the animal's tail tip entering the arm and repetitive arm entries as an animal re-entering the same arm three times in a row (e.g., 5 sequential entries into the same arm is 3 repetitive entries). Ratio of right and left arm entries was calculated to determine spatial preference of mice in different treatment groups. The data were analyzed using repeated measures analysis of variance (ANOVA) using Dunnett test. […]

[10] = test system: H2S; experiment: Zn-agar entrapment H2S measurement in cell culture; format: cell-based
Method: To sterilized agar solution (1% w/v) was added 45 mM Zn Acetate and 4.5 mM NaOH (both prepared in sterile water). The solution was then applied to the non-adherent surface of the empty flasks and allowed to solidify. Cells were seeded in T-25 flask at 1 million cells/flask overnight. Cells were treated with sulfanegen at 0-500 μM concentrations and incubated for 6 hours. After the incubation period, the media was removed and 2 ml N,N-dimethyl-p-phenylenediamine chloride was added to the agar layer and incubated at RT for 10 mins. This was followed by addition of 400 μL of ferrous chloride and incubation for 20 minutes. The solution was then aliquoted into 96-well plate and absorbance was measured at 670 nm. The release of H2S was measured using a standard curve generated with NaSH under similar experimental conditions (incubation with NaSH was done for 1 hr).

[11] = Brain permeability: brain and plasma levels after i.p. dosing (LC-MS/MS); format: in vivo, mouse; details: 50 mg/kg i.p.
Method: (§3) To ascertain the distribution of sulfanegen to the brain, plasma and brain samples were harvested from intraperitoneally treated animal groups and analyzed via LC-MS/MS. A saline solution of sulfanegen was injected into the mouse peritoneum at a dose of 50 mg/kg. Specifically, samples were collected at 0.25, 0.5, 1, 2, and 4 h after the drug administration. […] Samples were immediately centrifuged at 3000 rpm for 10 min at 4° C., and the separated top plasma layer was transferred into a new tube. Blood samples were stored at −80° C. until LC-MS/MS analysis. For brain samples, brain tissue was extracted from the animal and washed with copious volumes of ice-cold D-PBS for removal of blood from the sample. The brain samples were homogenized by adding 1:5 (w/v) of ice-cold D-PBS into the tube and using a mechanical homogenizer on them. Homogenized brain samples were stored at −80° C.

[12] = Oral bioavailability: plasma levels after i.v. and p.o. dosing (LC-MS/MS); format: in vivo; details: mouse
Method: as §3
Similar experimental design was used for determination of oral bioavailability of sulfanegen (Table 2). Plasma samples were collected after intravenous and oral administration of the compound and concentration of sulfanegen in these samples was determined using LC-MS/MS analysis.

In the case of `O=C(O)C1(O)CSC(O)(C(=O)O)CS1` (stereo not drawn) [sulfanegen], the tolerability ([1]; 50 mg/kg i.p.) is reported as “well tolerated”, the “mice that died during the experiment” value ([1]; 100 mg/kg i.p.) is reported as “Two mice (out of 7)” and the “toxicity: liver and kidney enzymes” value ([1]; 100 mg/kg, total N=8/group) is reported as “elevations in liver and kidney enzymes in 2 animals”. For the same molecule, the body weights ([1]; 50 and 100 mg/kg i.p., compared to Aβ1-42-only control group) was “No marked decrease or increase in weights”, the “other signs of distress” value ([1]; both tested doses (50 and 100 mg/kg i.p.)) was “No other signs of distress” and the “cognitive behavior / cognitive impairment by T-maze” value ([2]; 50 and 100 mg/kg i.p.) was “marked improvement; also recorded: prevented cognitive impairment”. The “T-maze alternation and repetition behavior” value ([2]; 50 and 100 mg/kg i.p., 6 days after Aβ1-42 injection) was “significant improvement”, the “spatial bias or anxiety-like behavior in T-maze” value ([2]; i.p. sulfanegen-treated mice) was “did not exhibit spatial bias or anxiety-like behavior” and the “brain TNFα level” value [3] was “significant decrease; also recorded: significant difference”. The “brain IL-6 level” value ([4]; 50 mg/kg i.p.) was “reduction of increased IL-6 levels; also recorded: significant difference”, the “brain IL-6 level” value ([4]; 100 mg/kg i.p.) was “Increase in IL-6” and the “total GSH levels in brain” value ([5]; 50 mg/Kg and 100 mg/Kg) was “higher”. The “reduced GSH levels in brain” value ([5]; 100 mg/Kg, compared to both vehicle and amyloid beta treatment) was “significantly higher”, the “GSH level as oxidative stress marker (legend of FIGS. 8A-8C)” value ([5]; 50 or 100 mg/Kg) was “significantly reduced” and the “protein carbonyl levels in brain” value ([6]; 50 mg/kg) was “significantly reduced”. The “protein carbonyl levels (legend of FIGS. 8A-8C)” value ([6]; 50 or 100 mg/Kg) was “significantly reduced”, the “TBARS (lipid peroxidation) levels in brain” value [7] was “significantly reduced” and the “protection against Aβ1-42 reduction in cell viability” value ([8]; SH-SY-5Y, 20 μM Aβ1-42, CCK-8) was “prevented; also recorded: high protective effect”. For the same molecule, the cell growth ([8]; SH-SY-5Y, with 20 μM Aβ1-42) was “increase in cell growth, even above the control levels”, the “dose above which protective effect appears saturated” value ([8]; no difference at higher 500 μM dose) was “above 350 μM” and the “cognitive function (T-maze spontaneous alternation)” value [9] was “improved cognitive function”. The H2S release ([10]; 500 μM as compared to 250 μM, 6 h) was “decrease”, the H2S release ([10]; up to 250 μM at 6 h, vs vehicle control) was “dose-dependent increase” and the “crossing of the blood brain barrier (BBB)” value [11] was “able to cross the blood brain barrier”. The “AUC, brain” value ([11]; samples 0.25-4 h) was 51.495 µM·h, the Kp ([11]; mouse, brain/plasma, intraperitoneal, read-out: B/P Ratio (Brain-Plasma ratio)) was 0.751 and the AUC ([11]; mouse, plasma, ip, samples 0.25-4 h) was 68.6 µM·h. The AUC ([12]; iv, 10 mg/kg, read-out: AUC, plasma, i.v.) was 32.6 µM·h, the bioavailability ([12]; oral, p.o. 50 mg/kg vs i.v. 10 mg/kg) was 15.1% and the AUC ([12]; po, 50 mg/kg, read-out: AUC, plasma, p.o.) was 24.6 µM·h.
